From patent US11634412B2, “3-phosphoglycerate dehydrogenase inhibitors and uses thereof” (Raze Therapeutics, Inc., priority 2016, dated 2023)

The molecules below were run against T1, Full length (FL) 3-Phosphoglycerate Dehydrogenase (PHGDH) (Homo sapiens, UniProt O43175) (assay: Full length (FL) PHGDH Diaphorase coupled assay (20 uM NAD)). Conditions: full-length PHGDH 10 nM, 30° C. 60 minutes, resorufin fluorescence.
T1 construct: Full length (FL) 3-Phosphoglycerate Dehydrogenase (PHGDH) Diaphorase coupled assay (500 uM NAD)
T1 sequence (O43175 1-533): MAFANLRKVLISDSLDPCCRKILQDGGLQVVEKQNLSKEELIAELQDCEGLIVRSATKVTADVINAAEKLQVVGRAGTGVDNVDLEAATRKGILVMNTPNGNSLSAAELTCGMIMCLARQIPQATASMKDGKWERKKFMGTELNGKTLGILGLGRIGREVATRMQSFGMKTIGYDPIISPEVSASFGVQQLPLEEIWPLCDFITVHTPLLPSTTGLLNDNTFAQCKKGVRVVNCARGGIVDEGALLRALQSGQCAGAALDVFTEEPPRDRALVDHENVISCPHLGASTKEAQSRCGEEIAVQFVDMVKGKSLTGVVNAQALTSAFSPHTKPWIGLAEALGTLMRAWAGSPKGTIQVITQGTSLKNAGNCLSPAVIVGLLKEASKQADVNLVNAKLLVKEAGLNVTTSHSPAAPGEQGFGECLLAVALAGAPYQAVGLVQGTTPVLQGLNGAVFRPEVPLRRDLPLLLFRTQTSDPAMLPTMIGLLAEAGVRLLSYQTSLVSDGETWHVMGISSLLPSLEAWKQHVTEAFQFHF
Format: biochemical
Protocol: (§1) PHGDH activity was determined by detecting the NADH produced during the reaction. Diaphorase was used to catalyze the oxidation of NADH with the concomitant reduction of resazurin to the fluorescent product resorufin. Resorufin fluorescence quantitatively reflected the production of NADH by the PHGDH reaction. To drive the forward reaction, two enzymes in the serine synthesis pathway subsequent to PHGDH, Phosphoserine aminotransferase (PSAT1) and phosphoserine phosphatase (PSPH) were also added to the reaction.

Row | Compound | IC50
1 | Cn1c(C(=O)NC2(c3ccc(-c4nnn[nH]4)cc3)CCOC2)cc2c(Cl)c(Cl)ccc21 (racemic) [I-128 e148, (±)-4,5-Dichloro-1-methyl-N-[3-[4-(1H-tetrazol-5-yl)phenyl]tetrahydro-furan-3-yl]indole-2-carboxamide] | 0.001 to 1 µM
2 | CN1CCC(NC(=O)c2cc3c(Cl)c(Cl)ccc3n2C)(c2ccc(C(=O)O)cc2)C1 (racemic) [I-130 e17] | 0.001 to 1 µM
3 | Cn1c(C(=O)NC2(c3ccc(C(N)=O)cc3)CCOC2)cc2c(Cl)c(Cl)ccc21 (racemic) [I-131 e144, (±)-N-[3-(4-Carbamoylphenyl)tetrahydrofuran-3-yl]-4,5-dichloro-1-methyl-indole-2-carboxamide] | 1 to 5 µM
4 | Cn1c(C(=O)NC2(c3ccc(C#N)cc3)CCOC2)cc2c(Cl)c(Cl)ccc21 (racemic) [I-134 e143, 4,5-dichloro-N-[3-(4-cyanophenyl)tetrahydrofuran-3-yl]-1-methyl-indole-2-carboxamide] | 1 to 5 µM
5 | CNC(=O)NS(=O)(=O)N1CCCC(NC(=O)c2cc3c(Cl)c(Cl)ccc3n2C)(c2ccc(C(=O)O)cc2)C1 (racemic) [I-140 e15] | 0.001 to 1 µM
6 | Cn1c(C(=O)NC2(c3cccc(C(N)=O)c3)CCOC2)cc2c(Cl)c(Cl)ccc21 (racemic) [I-141 e140, (±)-N-[3-(3-Carbamoylphenyl)tetrahydrofuran-3-yl]-4,5-dichloro-1-methyl-indole-2-carboxamide] | 1 to 5 µM
7 | CNC(=O)NS(=O)(=O)N1CCCC(NC(=O)c2cc3c(Cl)c(Cl)ccc3n2C)(c2cccc(C#N)c2)C1 (racemic) [I-142 e7] | 5 to 10 µM
8 | CNC(=O)NS(=O)(=O)N1CCCC(NC(=O)c2cc3c(Cl)c(Cl)ccc3n2C)(c2ccccc2)C1 (racemic) [I-146 e6] | 5 to 10 µM
9 | CC(=O)NS(=O)(=O)N1CCC(NC(=O)c2cc3c(Cl)c(Cl)ccc3n2C)(c2ccccc2)C1 (racemic) [I-147 e8] | 1 to 5 µM
10 | Cn1c(C(=O)N[C@]2(c3ccc(C(=O)O)cc3)CCOC2)cc2c(Cl)c(Cl)ccc21 (single isomer, unassigned; peak 1) [I-133 or I-132 e146 peak 1] | 0.001 to 1 µM

The next lines start with the values.

Row | IC50 | Compound
11 | 0.001 to 1 µM | Cn1c(C(=O)NC2(c3ccc(CC(=O)O)cc3)CCOC2)cc2c(Cl)c(Cl)ccc21 (racemic) [I-129 e149, (±)-2-[4-[3-[(4,5-Dichloro-1-methyl-indole-2-carbonyl)amino]tetrahydrofuran-3-yl]phenyl]acetic acid]
12 | 1 to 5 µM | Cn1c(C(=O)NC2(c3ccc(Br)cc3)CCOC2)cc2c(Cl)c(Cl)ccc21 (racemic) [I-135 e142, (±)-N-[3-(4-Bromophenyl)tetrahydrofuran-3-yl]-4,5-dichloro-1-methyl-indole-2-carboxamide]
13 | 0.001 to 1 µM | Cn1c(C(=O)NC2(c3ccc(C(=O)O)cc3)CCOC2)cc2c(Cl)c(Cl)ccc21 (racemic) [I-136 e145, (±)-4-[3-[(4,5-Dichloro-1-methyl-indole-2-carbonyl)amino]tetrahydrofuran-3-yl]benzoic acid]
14 | 0.001 to 1 µM | Cn1c(C(=O)NC2(c3ccc(C(=O)O)cc3)CCOC2)cc2c(Cl)c(Cl)ccc21 (racemic) [I-137 e141, (±)-4-[3-[(4,5-Dichloro-1-methyl-indole-2-carbonyl)amino]tetrahydrofuran-3-yl]benzoic acid]
15 | 5 to 10 µM | CNC(=O)NS(=O)(=O)N1CCCC(NC(=O)c2cc3c(Cl)c(Cl)ccc3n2C)(c2cccc(CO)c2)C1 (racemic) [I-138 e16]
16 | 1 to 5 µM | CNC(=O)NS(=O)(=O)N1CCCC(NC(=O)c2cc3c(Cl)c(Cl)ccc3n2C)(c2cccc(C(=O)O)c2)C1 (racemic) [I-139 e14]
17 | 1 to 5 µM | Cn1c(C(=O)NC2(c3cccc(C#N)c3)CCOC2)cc2c(Cl)c(Cl)ccc21 (racemic) [I-143 e139, (±)-4,5-dichloro-N-[3-(3-cyanophenyl)tetrahydrofuran-3-yl]-1-methyl-indole-2-carboxamide]

The molecules below were run against T1, Full length (FL) 3-Phosphoglycerate Dehydrogenase (PHGDH) (assay: Full length (FL) PHGDH Diaphorase coupled assay (500 uM NAD)). Conditions: full-length PHGDH 5 nM, 30° C. 60 minutes, resorufin fluorescence.
Format: biochemical
Protocol: Full length (FL) 3-Phosphoglycerate Dehydrogenase (PHGDH) Diaphorase coupled assay (500 uM NAD)
as §1
Briefly, serial dilution of compounds were incubated in a volume of 20 μL in 384 well plates with the assay mixture containing 5 nM PHGDH, 500 nM PSAT1, 500 nM PSPH, 500 μM NAD^+, 80 uM 3-phosphoglycerate, 1 mM glutamate, 57 uM Resazurin and 0.2 mg/ml Diaphorase in assay buffer containing 50 mM Trisethanoloamine (TEA) pH8.0, 10 mM MgCl2, 0.01% Tween-20 and 0.05% Bovine Serum Albumin (BSA). The plate was then incubated at 30° C. for 60 minutes and resorufin fluorescence was measured at emission wavelength 598 nm following excitation at 525 nm. The positive control consisted of the complete reaction mixture with 4% DMSO and was set to 0% inhibition.

Row | Compound | IC50
18 | Cn1c(C(=O)NC2(c3ccc(C(C)(C)C(=O)O)cc3F)COC2)cc2c(Cl)c(Cl)ccc21 [I-37 e109] | 0.001 to 1 µM
19 | Cn1c(C(=O)NC2(c3ccc(Cc4nnn[nH]4)cc3)COC2)cc2c(Cl)c(Cl)ccc21 [I-41 e92] | 0.001 to 1 µM
20 | COc1cc2c(cc(C(=O)NC3(c4ccc(C(=O)O)cc4Cl)COC3)n2C)c(Cl)c1F [I-44 e76] | 0.001 to 1 µM
21 | COc1cc2c(cc(C(=O)NC3(c4ccc(C(=O)O)cc4C)COC3)n2C)c(Cl)c1C [I-45 e74] | 0.001 to 1 µM
22 | COc1cc2c(cc(C(=O)NC3(c4ccc(C(=O)O)cc4Cl)COC3)n2C)c(Cl)c1C [I-46 e73] | 0.001 to 1 µM
23 | COc1cc2c(cc(C(=O)NC3(c4ccc(C(=O)O)cc4F)COC3)n2C)c(Cl)c1F [I-56 e78] | 0.001 to 1 µM
24 | Cc1ccc2c(cc(C(=O)NC3(c4ccc(CC(=O)O)cc4F)COC3)n2C)c1Cl [I-63 e44] | 0.001 to 1 µM
25 | COc1cc2c(cc(C(=O)NC3(c4ccc(C(=O)O)cc4Cl)COC3)n2C)c(Cl)c1Cl [I-66 e67] | 0.001 to 1 µM
26 | COc1cc(CC(=O)O)ccc1C1(NC(=O)c2cc3c(Cl)c(Cl)ccc3n2C)COC1 [I-69 e52] | 5 to 10 µM
27 | CC(C(=O)O)c1ccc(C2(NC(=O)c3cc4c(Cl)c(Cl)ccc4n3C)COC2)c(F)c1 (centres unmarked) [I-70 e61] | 0.001 to 1 µM
28 | COc1ccc2c(cc(C(=O)NC3(c4ccc(C(=O)O)cc4F)COC3)n2C)c1Cl [I-75 e66] | 0.001 to 1 µM
29 | COc1cc2c(cc(C(=O)NC3(c4ccc(C(=O)O)cc4F)COC3)n2C)c(Cl)c1Cl [I-76 e42] | 0.001 to 1 µM
30 | Cc1cc(C(=O)O)ccc1C1(NC(=O)c2cc3c(Cl)c(Cl)ccc3n2C)COC1 [I-83 e50] | 0.001 to 1 µM
31 | Cn1c(C(=O)NC2(c3ccc(CC(=O)O)cc3Cl)COC2)cc2c(Cl)c(Cl)ccc21 [I-84 e49] | 0.001 to 1 µM
32 | COc1cc2c(cc(C(=O)NC3(c4ccc(CC(=O)O)cc4F)COC3)n2C)c(Cl)c1Cl [I-86 e45] | 0.001 to 1 µM
33 | Cn1c(C(=O)NC2(c3ccc(CC(=O)O)cc3F)COC2)cc2c(Cl)c(Cl)ccc21 [I-90 e43] | 0.001 to 1 µM

Next, values leading:

Row | IC50 | Compound
34 | 0.001 to 1 µM | CC(C(=O)O)c1ccc(C2(NC(=O)c3cc4c(Cl)c(Cl)ccc4n3C)COC2)c(Cl)c1 (centres unmarked) [I-33 e62]
35 | 0.001 to 1 µM | Cn1c(C(=O)NC2(c3ccc(C(C)(C)C(=O)O)cc3)COC2)cc2c(Cl)c(Cl)ccc21 [I-36 e107]
36 | 0.001 to 1 µM | COc1cc2c(cc(C(=O)NC3(c4ccc(C(=O)O)cc4C)COC3)n2C)c(Cl)c1F [I-47 e77]
37 | 0.001 to 1 µM | COc1cc2c(cc(C(=O)NC3(c4ccc(C(C)C(=O)O)cc4)COC3)n2C)c(Cl)c1Cl (centres unmarked) [I-48 e71]
38 | 0.001 to 1 µM | COc1cc2c(cc(C(=O)NC3(c4ccc(C(=O)O)cc4F)COC3)n2C)c(Cl)c1C [I-50 e75]
39 | 0.001 to 1 µM | COc1cc2c(cc(C(=O)NC3(c4ccc(C(=O)O)cc4C)COC3)n2C)c(Cl)c1Cl [I-51 e68]
40 | 0.001 to 1 µM | COc1ccc2c(cc(C(=O)NC3(c4ccc(C(=O)O)cc4C)COC3)n2C)c1Cl [I-60 e65]
41 | 0.001 to 1 µM | COc1cc2c(cc(C(=O)NC3(c4ccc(CC(=O)O)cc4F)COC3)n2C)c(Cl)c1F [I-61 e47]
42 | 0.001 to 1 µM | COc1cc2c(cc(C(=O)NC3(c4ccc(CC(=O)O)cc4F)COC3)n2C)c(Cl)c1C [I-62 e46]
43 | 0.001 to 1 µM | COc1ccc2c(cc(C(=O)NC3(c4ccc(C(=O)O)cc4Cl)COC3)n2C)c1Cl [I-65 e69]
44 | 0.001 to 1 µM | Cn1c(C(=O)NC2(c3ccc(C(=O)O)cc3F)COC2)cc2c(Cl)c(Cl)ccc21 [I-79 e41]
45 | 0.001 to 1 µM | Cc1cc(CC(=O)O)ccc1C1(NC(=O)c2cc3c(Cl)c(Cl)ccc3n2C)COC1 [I-82 e51]
46 | 0.001 to 1 µM | Cn1c(C(=O)NC2(c3ccc(C(=O)O)cc3Cl)COC2)cc2c(Cl)c(Cl)ccc21 [I-85 e48]
47 | 0.001 to 1 µM | COc1ccc2c(cc(C(=O)NC3(c4ccc(CC(=O)O)cc4)COC3)n2C)c1Cl [I-103 e39]
48 | 0.001 to 1 µM | CCC(=O)NS(=O)(=O)c1ccc(C2(NC(=O)c3cc4c(Cl)c(OC)ccc4n3C)COC2)cc1 [I-161 e164, 4-Chloro-5-methoxy-1-methyl-N-(3-(4-(N-propanoylsulfamoyl)phenyl)-oxetan-3-yl)-1H-indole-2-carboxamide]
49 | 0.001 to 1 µM | COc1ccc2c(cc(C(=O)NC3(c4ccc(C(=O)NS(C)(=O)=O)cc4)COC3)n2C)c1Cl [I-162 e165, 4-Chloro-5-methoxy-1-methyl-N-(3-(4-((methylsulfonyl)carbamoyl)-phenyl)oxetan-3-yl)-1H-indole-2-carboxamide]
50 | 0.001 to 1 µM | COc1ccc2c(cc(C(=O)NC3(c4ccc(S(=O)(=O)NC(C)=O)cc4)COC3)n2C)c1Cl [I-164 e88]
